Drawing on US10450318B2, “CXCR4 receptor antagonists” (BRISTOL-MYERS SQUIBB COMPANY, priority 2015, dated 2019), this text covers IC50 for 28 compounds.

Molecules are shown by their SMILES. pIC50: −log10 of the molar value.

The target in the assay is T1, CXCR4 receptors (Homo sapiens, UniProt P61073).
T1 construct: expressing endogenous CXCR4 receptors; endogenous in cells; host or cells: CCRF-CEM (human T lymphoblast cells)
T1 sequence (P61073 whole entry): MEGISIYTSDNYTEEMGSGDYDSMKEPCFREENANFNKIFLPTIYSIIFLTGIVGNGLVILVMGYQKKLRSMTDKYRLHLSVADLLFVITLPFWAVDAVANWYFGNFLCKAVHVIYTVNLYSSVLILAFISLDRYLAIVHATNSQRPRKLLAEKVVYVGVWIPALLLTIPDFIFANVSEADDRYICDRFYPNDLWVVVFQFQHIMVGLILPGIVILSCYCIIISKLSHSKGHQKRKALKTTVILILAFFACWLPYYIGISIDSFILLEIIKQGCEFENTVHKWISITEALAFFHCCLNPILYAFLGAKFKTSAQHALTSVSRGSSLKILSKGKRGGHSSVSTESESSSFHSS
Nature of the assay: CXCR4-CEM calcium flux assay, antagonist mode (inhibition of SDF-1α-induced calcium flux). The assay is classed as cell-based. To be noted: inhibition of calcium flux induced by 4 nM SDF-1α in CCRF-CEM cells. The protocol: Exemplary compounds of the invention were tested for their ability to induce or inhibit calcium flux in CCRF-CEM cells. […] CXCR4-CEM Calcium Flux Assays. […] The cells were then equilibrated to room temperature for 30 minutes before assay. […] The serially diluted compounds were diluted to working concentrations with the same assay buffer to 0.5% DMSO. […] Activity of the compounds to induce calcium flux was monitored by FDSS in the “agonist mode” for 90 sec. For “antagonist mode” assessment, the cells are subsequently incubated for 25 min at room temperature. SDF-1α (R&D System Cat#350-NS/CF) was then added at a final concentration of 4 nM to stimulate the cells. Inhibition of SDF-1α-induced calcium flux was monitored by FDSS6000 for 90 sec. […] After correcting for background, EC50 values were determined. […] Inhibition data for the test compound over a range of concentrations was plotted as percentage inhibition of the test compound as compared to an internal control compound.
(Calcium assays in cells follow changes in intracellular calcium, usually with a dye or a luminescent sensor.)
As usually defined, the pIC50 is the IC50 on a negative log10 scale, so that one unit is a factor of ten. Take `CN(Cc1cn2c(N3CCN(Cc4cccn4C)CC3)nccc2n1)[C@H]1CCCc2cccnc21` [Example 56, (S)-N-methyl-N-[(5-{4-[(1-methyl-1H-pyrrol-2-yl)methyl]piperazin-1-yl}imidazo[1,2-c]pyrimidin-2-yl)methyl]-5,6,7,8-tetrahydroquinolin-8-amine]: the pIC50 is 8.34.
As for `CN(Cc1cn2c(N3CCN(Cc4cccc(Oc5ccccc5)c4)CC3)nccc2n1)[C@H]1CCCc2cccnc21` [Example 57, (8S)-N-methyl-N-[(5-{4-[(3-phenoxyphenyl)methyl]piperazin-1-yl}imidazo[1,2-c]pyrimidin-2-yl)methyl]-5,6,7,8-tetrahydroquinolin-8-amine], the pIC50 is 7.55.
As to `CN(Cc1cn2c(N3CCN(CC4CCCO4)CC3)nccc2n1)[C@H]1CCCc2cccnc21` (stereo partly drawn) [Example 58, (S)-N-methyl-N-({5-[4-(oxolan-2-ylmethyl)piperazin-1-yl]imidazo[1,2-c]pyrimidin-2-yl}methyl)-5,6,7,8-tetrahydroquinolin-8-amine], the pIC50 is 7.22.
As to `CN(Cc1cn2c(N3CCN(Cc4ccccc4O)CC3)nccc2n1)[C@H]1CCCc2cccnc21` [Example 59, 2-({4-[2-({methyl[(S)-5,6,7,8-tetrahydroquinolin-8-yl]amino}methyl)imidazo[1,2-c]pyrimidin-5-yl]piperazin-1-yl}methyl)phenol], the pIC50 was 7.60.
In the case of `CN(C)c1ccc(CN2CCN(c3nccc4nc(CN(C)[C@H]5CCCc6cccnc65)cn34)CC2)cc1` [Example 60, (8S)-N-{[5-(4-{[4-(dimethylamino)phenyl]methyl}piperazin-1-yl)imidazo[1,2-c]pyrimidin-2-yl]methyl}-N-methyl-5,6,7,8-tetrahydroquinolin-8-amine], the pIC50 was 8.12.
As to `CN(Cc1cn2c(N3CCN(CCc4ccc(O)cc4)CC3)nccc2n1)[C@H]1CCCc2cccnc21` [Example 61, 4-(2-{4-[2-({methyl[(S)-5,6,7,8-tetrahydroquinolin-8-yl]amino}methyl)imidazo[1,2-c]pyrimidin-5-yl]piperazin-1-yl}ethyl)phenol], the negative-log IC50 (pIC50) was 7.48.
As for `CN(Cc1cn2c(N3CCN(S(=O)(=O)c4cccs4)CC3)nccc2n1)[C@H]1CCCc2cccnc21` [Example 62, (S)-N-methyl-N-({5-[4-(thiophene-2-sulfonyl)piperazin-1-yl]imidazo[1,2-c]pyrimidin-2-yl}methyl)-5,6,7,8-tetrahydroquinolin-8-amine], the pIC50 was 4.71.
The value for `CN(Cc1cn2c(N3CCN(S(=O)(=O)c4ccccc4)CC3)nccc2n1)[C@H]1CCCc2cccnc21` [Example 63, (S)-N-({5-[4-(benzenesulfonyl)piperazin-1-yl]imidazo[1,2-c]pyrimidin-2-yl}methyl)-N-methyl-5,6,7,8-tetrahydroquinolin-8-amine] was 4.78; that for `CN(Cc1cn2c(N3CCN(Cc4ccc(C(F)(F)F)cc4)CC3)nccc2n1)[C@H]1CCCc2cccnc21` [Example 64, (S)-N-methyl-N-{[5-(4-{[4-(trifluoromethyl)phenyl]methyl}piperazin-1-yl)imidazo[1,2-c]pyrimidin-2-yl]methyl}-5,6,7,8-tetrahydroquinolin-8-amine] was 7.96.
The value for `CC(CCN1CCN(c2nccc3nc(CN(C)[C@H]4CCCc5cccnc54)cn23)CC1)c1ccccc1` (stereo partly drawn) [Example 65, (S)-N-methyl-N-({5-[4-(3-phenylbutyl)piperazin-1-yl]imidazo[1,2-c]pyrimidin-2-yl}methyl)-5,6,7,8-tetrahydroquinolin-8-amine] was 7.80; that for `CN(Cc1cn2c(N3CCN(Cc4cccc(C#N)c4)CC3)nccc2n1)[C@H]1CCCc2cccnc21` [Example 66, 3-({4-[2-({methyl[(S)-5,6,7,8-tetrahydroquinolin-8-yl]amino}methyl)imidazo[1,2-c]pyrimidin-5-yl]piperazin-1-yl}methyl)benzonitrile] was 8.03.
Next, `CN(Cc1cn2c(N3CCN(Cc4nccs4)CC3)nccc2n1)[C@H]1CCCc2cccnc21` [Example 67, (S)-N-methyl-N-({5-[4-(1,3-thiazol-2-ylmethyl)piperazin-1-yl]imidazo[1,2-c]pyrimidin-2-yl}methyl)-5,6,7,8-tetrahydroquinolin-8-amine]: 7.38.
With `CN(Cc1cn2c(N3CCN(C(=O)Nc4cccc(Cl)c4)CC3)nccc2n1)[C@H]1CCCc2cccnc21` [Example 68, N-(3-chlorophenyl)-4-[2-({methyl[(S)-5,6,7,8-tetrahydroquinolin-8-yl]amino}methyl)imidazo[1,2-c]pyrimidin-5-yl]piperazine-1-carboxamide], the pIC50 was 7.30.
For `CN(Cc1cn2c(N3CCN(Cc4cccc(O)c4)CC3)nccc2n1)[C@H]1CCCc2cccnc21` [Example 69, 3-({4-[2-({methyl[(S)-5,6,7,8-tetrahydroquinolin-8-yl]amino}methyl)imidazo[1,2-c]pyrimidin-5-yl]piperazin-1-yl}methyl)phenol], the pIC50 was 8.42.
Next, `CN(Cc1cn2c(N3CCNCC3)nccc2n1)[C@H]1CCOc2cccnc21` [Example 70, (S)—N-Methyl-N-((5-(piperazin-1-yl)imidazo[1,2-c]pyrimidin-2-yl)methyl)-3,4-dihydro-2H-pyrano[3,2-b]pyridin-4-amine]: 8.38; `CN(Cc1nc2ccnc(N3CCNCC3)n2c1CO)[C@H]1CCOc2cccnc21` [Example 71, (S)-(2-(((3,4-Dihydro-2H-pyrano[3,2-b]pyridin-4-yl)(methyl)amino)methyl)-5-(piperazin-1-yl)imidazo[1,2-c]pyrimidin-3-yl)methanol]: 8.57.
For the compound `CN(Cc1cn2c(N3CCNCC3)nc(Cl)cc2n1)[C@H]1CCCc2cccnc21` [Example 72, (S)—N-((7-Chloro-5-(piperazin-1-yl)imidazo[1,2-c]pyrimidin-2-yl)methyl)-N-methyl-5,6,7,8-tetrahydroquinolin-8-amine], the pIC50 was 6.48.
The value for `C[C@@H]1CN(c2nccc3nc(CN(C)[C@H]4CCCc5cccnc54)cn23)C[C@H](C)N1` [Example 73, (S)—N-((5-((3S,5R)-3,5-Dimethylpiperazin-1-yl)imidazo[1,2-c]pyrimidin-2-yl)methyl)-N-methyl-5,6,7,8-tetrahydroquinolin-8-amine] was 6.92.
Next, `CN(Cc1cn2c(N3CCC(N)C3)nccc2n1)[C@H]1CCCc2cccnc21` (stereo partly drawn) [Example 74, (8S)-N-((5-(3-aminopyrrolidin-1-yl)imidazo[1,2-c]pyrimidin-2-yl)methyl)-N-methyl-5,6,7,8-tetrahydroquinolin-8-amine]: 7.10.
The value for `CN(Cc1cn2c(N3CCN4CCC[C@H]4C3)nccc2n1)[C@H]1CCCc2cccnc21` [Example 76, (S)-N-((5-((S)-hexahydropyrrolo[1,2-a]pyrazin-2(1H)-yl)imidazo[1,2-c]pyrimidin-2-yl)methyl)-N-methyl-5,6,7,8-tetrahydroquinolin-8-amine] was 8.19.
As to `CN(Cc1cn2c(N3CCNC[C@H]3CO)nccc2n1)[C@H]1CCCc2cccnc21` [Example 77, ((S)-1-(2-((methyl((S)-5,6,7,8-tetrahydroquinolin-8-yl)amino)methyl)imidazo[1,2-c]pyrimidin-5-yl)piperazin-2-yl)methanol], the pIC50 is 6.60.
Turning to `CN(Cc1cn2c(N3CC4CNCC4C3)nccc2n1)[C@H]1CCCc2cccnc21` (stereo partly drawn) [Example 80, (8S)-N-((5-(hexahydropyrrolo[3,4-c]pyrrol-2(1H)-yl)imidazo[1,2-c]pyrimidin-2-yl)methyl)-N-methyl-5,6,7,8-tetrahydroquinolin-8-amine], the pIC50 is 7.64.
Consider `CN1CC2CN(c3nccc4nc(CN(C)[C@H]5CCCc6cccnc65)cn34)CC2C1` (stereo partly drawn) [Example 81, (8S)-N-methyl-N-((5-(5-methylhexahydropyrrolo[3,4-c]pyrrol-2(1H)-yl)imidazo[1,2-c]pyrimidin-2-yl)methyl)-5,6,7,8-tetrahydroquinolin-8-amine], for which the pIC50 is 7.49.
Turning to `CN(Cc1cn2c(N3CCn4cnnc4C3)nccc2n1)[C@H]1CCCc2cccnc21` [Example 82, (S)-N-((5-(5,6-dihydro-[1,2,4]triazolo[4,3-a]pyrazin-7(8H)-yl)imidazo[1,2-c]pyrimidin-2-yl)methyl)-N-methyl-5,6,7,8-tetrahydroquinolin-8-amine], the pIC50 is 5.42.
In the case of `CN(Cc1cn2c(N3CCn4ccnc4C3)nccc2n1)[C@H]1CCCc2cccnc21` [Example 83, (S)-N-((5-(5,6-dihydroimidazo[1,2-a]pyrazin-7(8H)-yl)imidazo[1,2-c]pyrimidin-2-yl)methyl)-N-methyl-5,6,7,8-tetrahydroquinolin-8-amine], the pIC50 was 6.82.
Next, `CN(Cc1cn2c(N3CCN(CC(F)(F)F)CC3)nccc2n1)[C@H]1CCCc2cccnc21` [Example 84, (S)-N-methyl-N-((5-(4-(2,2,2-trifluoroethyl)piperazin-1-yl)imidazo[1,2-c]pyrimidin-2-yl)methyl)-5,6,7,8-tetrahydroquinolin-8-amine]: less than 4.80; `CN(Cc1cn2c(N3CCN[C@@H](CO)C3)nccc2n1)[C@H]1CCCc2cccnc21` [Example 85, ((R)-4-(2-((methyl((S)-5,6,7,8-tetrahydroquinolin-8-yl)amino)methyl)imidazo[1,2-c]pyrimidin-5-yl)piperazin-2-yl)methanol]: 8.77.
`CN(Cc1cn2c(N3CCN[C@H](CO)C3)nccc2n1)[C@H]1CCCc2cccnc21` [Example 86, ((S)-4-(2-((methyl((S)-5,6,7,8-tetrahydroquinolin-8-yl)amino)methyl)imidazo[1,2-c]pyrimidin-5-yl)piperazin-2-yl)methanol]: the pIC50 was 8.77.
